Data from US20230365592A1 (Agios Pharmaceuticals, Inc., priority 2022, published 2023).

Target: T1, human PAH with the R408W mutation (Homo sapiens, UniProt P00439, R408W)
T1 construct: expressed in transfected cells
T1 sequence (P00439 1-452 R408W): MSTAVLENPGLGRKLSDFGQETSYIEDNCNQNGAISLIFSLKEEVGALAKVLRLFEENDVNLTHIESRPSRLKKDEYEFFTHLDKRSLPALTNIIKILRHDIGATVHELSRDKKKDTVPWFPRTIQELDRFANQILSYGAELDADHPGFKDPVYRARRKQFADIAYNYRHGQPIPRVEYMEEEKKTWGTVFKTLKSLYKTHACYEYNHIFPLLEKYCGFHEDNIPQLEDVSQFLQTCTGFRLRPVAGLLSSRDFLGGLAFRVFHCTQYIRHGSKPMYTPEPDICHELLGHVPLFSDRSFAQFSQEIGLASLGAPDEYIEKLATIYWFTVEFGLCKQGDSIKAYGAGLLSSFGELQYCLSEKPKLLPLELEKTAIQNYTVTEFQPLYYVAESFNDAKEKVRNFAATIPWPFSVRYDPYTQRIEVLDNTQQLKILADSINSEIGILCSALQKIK
Test: Cell Based Phenylalanine Flux Assay;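 note: after compound treatment, cells received sepiapterin plus isotope-labelled Phenylalanine for 4 hours, then labelled Tyrosine in the medium was quantified, 10-point 2-fold dilution series run in duplicate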
Settings: A375 cells expressing R408W PAH; 24 hrs with compound, then 20 µM sepiapterin and 800 µM 13C9,15N-Phenylalanine for 4 hours; 13C-Tyrosine by LC-MS; average where tested multiple times; read-out: AC50

**Q.** `COc1cccn2nc(C3c4nc[nH]c4CCN3C(=O)c3nnc(-c4ccn(C)n4)o3)cc12` (single isomer, unassigned) was tested. Which AC50 did it give?
**A.** > 5 µM

**Q.** For `Fc1cccn2nc([C@H]3c4nc[nH]c4CCN3c3nnc(-c4cccnc4)o3)cc12` (single isomer, unassigned), which AC50 is on record?
**A.** > 5 µM

**Q.** `Cc1cccn2nc([C@H]3c4nc[nH]c4CCN3C(=O)c3nnc(N4CCOCC4)o3)cc12` (single isomer, unassigned) was tested. Which AC50 did it give?
**A.** > 5 µM

**Q.** `N#Cc1ncoc1C(=O)N1CCc2[nH]cnc2[C@@H]1c1nn2ccccc2c1Br` (single isomer, unassigned) was tested. Which AC50 did it give?
**A.** 1 to 5 µM

**Q.** For `Fc1ccc(-c2nnc(N3CCc4[nH]cnc4[C@@H]3c3cc4ccccn4n3)o2)nc1` (single isomer, unassigned), which AC50 is on record?
**A.** > 5 µM

**Q.** Which AC50 does the source give for `O=C(c1nnc(-c2cc[nH]n2)o1)N1CCc2[nH]cnc2[C@H]1c1cc2ccccn2n1` (single isomer, unassigned) here?
**A.** 1 to 5 µM

**Q.** `Cn1cc(-c2nnc(C(=O)N3CCc4[nH]cnc4C3c3nn4ccccc4c3Br)o2)cn1` (single isomer, unassigned) was tested. Which AC50 did it give?
**A.** 1 to 5 µM

**Q.** Which AC50 does the source give for `COc1cccn2nc([C@@H]3c4nc[nH]c4CCN3C(=O)c3nnc(-c4ccn(C)n4)o3)cc12` (single isomer, unassigned) here?
**A.** 1 to 5 µM

**Q.** How did the AC50 turn out when `Cc1nc(-c2ccccn2)oc1C(=O)N1CCc2[nH]cnc2[C@H]1c1cc2ccccn2n1` (single isomer, unassigned) was run?
**A.** 1 to 5 µM

**Q.** Which AC50 does the source give for `Cc1nc(C(C)(C)O)oc1C(=O)N1CCc2[nH]cnc2[C@H]1c1cc2ccccn2n1` (single isomer, unassigned) here?
**A.** 1 to 5 µM

**Q.** With `Cc1ncccc1-c1nnc(N2CCc3[nH]cnc3[C@H]2c2cc3c(C4CC4)cccn3n2)o1` (single isomer, unassigned) as the molecule, how does the AC50 read?
**A.** 1 to 5 µM

**Q.** With `Fc1cccn2nc(C3c4nc[nH]c4CCN3c3nnc(-c4cccnc4)o3)cc12` (single isomer, unassigned) as the molecule, how does the AC50 read?
**A.** 1 to 5 µM

**Q.** Which AC50 does the source give for `N#Cc1ncoc1C(=O)N1CCc2[nH]cnc2[C@H]1c1nn2ccccc2c1Br` (single isomer, unassigned) here?
**A.** 1 to 5 µM

**Q.** Which AC50 does the source give for `CN(C)Cc1ccc2c(C(=O)N3CCc4[nH]cnc4C3c3cc4ccccn4n3)cnn2c1` (single isomer, unassigned) here?
**A.** 1 to 5 µM

**Q.** With `O=C(c1nnc(CCN2CC(F)C2)o1)N1CCc2[nH]cnc2C1c1cc2ccccn2n1` (stereo not drawn) [2-[2-(3-fluoroazetidin-1-yl)ethyl]-5-(4-{pyrazolo[1,5-a]pyridin-2-yl}-1H,4H,5H,6H,7H-imidazo[4,5-c]pyridine-5-carbonyl)-1,3,4-oxadiazole] as the molecule, how does the AC50 read?
**A.** > 5 µM

**Q.** How did the AC50 turn out when `O=C(C1CC1(F)F)N1CCc2[nH]cnc2C1c1cc2ccccn2n1` [4S enantiomer of 5-[(1S)-2,2-difluorocyclopropanecarbonyll-4] was run?
**A.** 1 to 5 µM

**Q.** With `CC(O)c1nnc(C(=O)N2CCc3[nH]cnc3C2c2cc3ccccn3n2)o1` [4S enantiomer of (1R)-1-{5-[4-{pyrazolo[1,5-a]pyridin-2-yl}-] as the molecule, how does the AC50 read?
**A.** 1 to 5 µM

**Q.** How did the AC50 turn out when `Cc1nc(C(C)O)oc1C(=O)N1CCc2[nH]cnc2C1c1cc2ccccn2n1` [4S enantiomer of (1S)-1-14-methyl-5-[4-{pyrazolo[1,5-a]pyrid] was run?
**A.** 1 to 5 µM

Same assay, conditions: A375 cells expressing human PAH R408W; 24 hrs compound incubation; 13C-Tyrosine by LC-MS; average where tested multiple times; read-out: AC50

**Q.** `Fc1cccc(F)c1-c1nnc(N2CCc3[nH]cnc3[C@@H]2c2cc3ccccn3n2)o1` (single isomer, unassigned) [Example 1842] was tested. Which AC50 did it give?
**A.** > 5 µM

**Q.** Which AC50 does the source give for `CC(O)c1nc(Cl)c(C(=O)N2CCc3[nH]cnc3[C@H]2c2cc3ccccn3n2)o1` (single isomer, unassigned) [Example 2376] here?
**A.** 1 to 5 µM

**Q.** With `CC(O)c1nc(Cl)c(C(=O)N2CCc3[nH]cnc3[C@H]2c2cc3ccccn3n2)o1` (single isomer, unassigned) [Example 2377] as the molecule, how does the AC50 read?
**A.** 1 to 5 µM

Same assay, conditions: A375 cells expressing human R408W PAH; 24 hrs compound incubation; 13C-Tyrosine by LC-MS; average where tested multiple times; read-out: AC50

**Q.** For `Cn1ccc(-c2nnc(C(=O)N3CCc4[nH]cnc4[C@H]3c3cc4c(C(F)(F)F)cccn4n3)o2)n1` (single isomer, unassigned) [Example 836], which AC50 is on record?
**A.** < 0.5 µM

**Q.** How did the AC50 turn out when `CC(O)c1nc(Br)c(C(=O)N2CCc3[nH]cnc3[C@H]2c2cc3ccccn3n2)o1` (single isomer, unassigned) [Example 996] was run?
**A.** < 0.5 µM

**Q.** How did the AC50 turn out when `CC(O)c1nc(Br)c(C(=O)N2CCc3[nH]cnc3[C@H]2c2cc3ccccn3n2)o1` (single isomer, unassigned) [Example 997] was run?
**A.** < 0.5 µM
